Measurements published in the supplement of paper PMC10733146.

How the values were obtained:
Assay in all cases: viability relative to DMSO control (fraction); higher = less drug effect (more viable cells)
Details in all cases: 48 h
[1] = tested on: primary ALL patient cells (S088)
How it was run: (§1)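 Viability is given as CellTiter-Glo luminescence relative to the median of 16 inner DMSO wells. Fresh or cryopreserved primary mononuclear tumour cells from blood, bone marrow (both Ficoll-isolated) or processed lymph node were plated at 4 × 10^4 cells per well in 384-well plates against five pre-plated compound concentrations, one well each. Incubation lasted 48 h at 37 °C and 5% CO2 in RPMI-1640 with penicillin/streptomycin, L-glutamine and human serum.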

[2] = tested on: primary AML patient cells (S011)
How it was run: as §1

[3] = tested on: primary AML patient cells (S019)
How it was run: as §1

[4] = tested on: primary AML patient cells (S037)
How it was run: as §1

[5] = tested on: primary AML patient cells (S060)
How it was run: as §1

[6] = tested on: primary AML patient cells (S071)
How it was run: as §1

[7] = tested on: primary AML patient cells (S085)
How it was run: as §1

[8] = tested on: primary AML patient cells (S089)
How it was run: as §1

[9] = tested on: primary AML patient cells (S091)
How it was run: as §1

[10] = tested on: primary B-PLL patient cells (S016)
How it was run: as §1

[11] = tested on: primary CLL patient cells (S031)
How it was run: as §1

[12] = tested on: primary DLBCL patient cells (S082)
How it was run: as §1

[13] = tested on: primary FL patient cells (S087)
How it was run: as §1

[14] = tested on: primary MCL patient cells (S041)
How it was run: as §1

Nc1ncn([C@H]2C[C@H](O)[C@@H](CO)O2)c(=O)n1 [Decitabine (Dacogen)]
viability ([1]; 0.024 µM): 0.978
viability ([1]; 0.12 µM): 0.886
viability ([1]; 0.6 µM): 0.982
viability ([1]; 3 µM): 0.778
viability ([1]; 15 µM): 0.799
viability ([2]; 0.024 µM): 0.963
viability ([2]; 0.12 µM): 0.887
viability ([2]; 0.6 µM): 1.1
viability ([2]; 3 µM): 0.887
viability ([2]; 15 µM): 0.956
viability ([3]; 0.024 µM): 1.11
viability ([3]; 0.12 µM): 0.753
viability ([3]; 0.6 µM): 1.04
viability ([3]; 3 µM): 0.684
viability ([3]; 15 µM): 0.918
viability ([4]; 0.024 µM): 1.01
viability ([4]; 0.12 µM): 0.925
viability ([4]; 0.6 µM): 0.981
viability ([4]; 3 µM): 0.91
viability ([4]; 15 µM): 0.955
viability ([5]; 0.024 µM): 1.01
viability ([5]; 0.12 µM): 0.975
viability ([5]; 0.6 µM): 1.02
viability ([5]; 3 µM): 0.99
viability ([5]; 15 µM): 1.01
viability ([6]; 0.024 µM): 0.995
viability ([6]; 0.12 µM): 0.948
viability ([6]; 0.6 µM): 0.934
viability ([6]; 3 µM): 0.792
viability ([6]; 15 µM): 0.756
viability ([7]; 0.024 µM): 0.939
viability ([7]; 0.12 µM): 0.904
viability ([7]; 0.6 µM): 0.909
viability ([7]; 3 µM): 0.807
viability ([7]; 15 µM): 0.687
viability ([8]; 0.024 µM): 0.729
viability ([8]; 0.12 µM): 1.06
viability ([8]; 0.6 µM): 0.632
viability ([8]; 3 µM): 1.22
viability ([8]; 15 µM): 0.642
viability ([9]; 0.024 µM): 0.958
viability ([9]; 0.12 µM): 1.09
viability ([9]; 0.6 µM): 0.83
viability ([9]; 3 µM): 0.913
viability ([9]; 15 µM): 0.617
viability ([10]; 0.024 µM): 0.927
viability ([10]; 0.12 µM): 0.83
viability ([10]; 0.6 µM): 0.972
viability ([10]; 3 µM): 0.874
viability ([10]; 15 µM): 0.88
viability ([11]; 0.024 µM): 1.02
viability ([11]; 0.12 µM): 0.916
viability ([11]; 0.6 µM): 1.04
viability ([11]; 3 µM): 0.869
viability ([11]; 15 µM): 0.965
viability ([12]; 0.024 µM): 0.993
viability ([12]; 0.12 µM): 0.936
viability ([12]; 0.6 µM): 0.973
viability ([12]; 3 µM): 0.908
viability ([12]; 15 µM): 0.967
viability ([13]; 0.024 µM): 0.969
viability ([13]; 0.12 µM): 0.89
viability ([13]; 0.6 µM): 0.981
viability ([13]; 3 µM): 0.864
viability ([13]; 15 µM): 0.966
viability ([14]; 0.024 µM): 1.06
viability ([14]; 0.12 µM): 0.969
viability ([14]; 0.6 µM): 1.06
viability ([14]; 3 µM): 0.961
viability ([14]; 15 µM): 0.984

COc1cccc2c1C(=O)c1c(O)c3c(c(O)c1C2=O)C[C@@](O)(C(C)=O)C[C@@H]3O[C@H]1C[C@H](N)[C@H](O)[C@H](C)O1 [Daunorubicin]
viability ([1]; 0.0016 µM): 1.13
viability ([1]; 0.008 µM): 0.849
viability ([1]; 0.04 µM): 0.235
viability ([1]; 0.2 µM): 0.0841
viability ([1]; 1 µM): 0.0273
viability ([2]; 0.0016 µM): 1.02
viability ([2]; 0.008 µM): 1.07
viability ([2]; 0.04 µM): 0.409
viability ([2]; 0.2 µM): 0.0898
viability ([2]; 1 µM): 0.0206
viability ([3]; 0.0016 µM): 1.38
viability ([3]; 0.008 µM): 1.33
viability ([3]; 0.04 µM): 0.56
viability ([3]; 0.2 µM): 0.395
viability ([3]; 1 µM): 0.102
viability ([4]; 0.0016 µM): 1.06
viability ([4]; 0.008 µM): 1.02
viability ([4]; 0.04 µM): 0.709
viability ([4]; 0.2 µM): 0.565
viability ([4]; 1 µM): 0.368
viability ([5]; 0.0016 µM): 1.16
viability ([5]; 0.008 µM): 1.14
viability ([5]; 0.04 µM): 1.07
viability ([5]; 0.2 µM): 1.14
viability ([5]; 1 µM): 0.0333
viability ([6]; 0.0016 µM): 1.04
viability ([6]; 0.008 µM): 0.272
viability ([6]; 0.04 µM): 0.128
viability ([6]; 0.2 µM): 0.118
viability ([6]; 1 µM): 0.095
viability ([7]; 0.0016 µM): 1.27
viability ([7]; 0.008 µM): 0.865
viability ([7]; 0.04 µM): 0.312
viability ([7]; 0.2 µM): 0.164
viability ([7]; 1 µM): 0.0173
viability ([8]; 0.0016 µM): 1.09
viability ([8]; 0.008 µM): 1.16
viability ([8]; 0.04 µM): 0.289
viability ([8]; 0.2 µM): 0.132
viability ([8]; 1 µM): 0.0299
viability ([9]; 0.0016 µM): 0.998
viability ([9]; 0.008 µM): 0.777
viability ([9]; 0.04 µM): 0.515
viability ([9]; 0.2 µM): 0.558
viability ([9]; 1 µM): 0.0819
viability ([10]; 0.0016 µM): 1.21
viability ([10]; 0.008 µM): 0.74
viability ([10]; 0.04 µM): 0.0721
viability ([10]; 0.2 µM): 0.0359
viability ([10]; 1 µM): 0.0137
viability ([11]; 0.0016 µM): 0.982
viability ([11]; 0.008 µM): 0.809
viability ([11]; 0.04 µM): 0.265
viability ([11]; 0.2 µM): 0.0431
viability ([11]; 1 µM): 0.0162
viability ([12]; 0.0016 µM): 1.1
viability ([12]; 0.008 µM): 1.07
viability ([12]; 0.04 µM): 0.838
viability ([12]; 0.2 µM): 0.714
viability ([12]; 1 µM): 0.0208
viability ([13]; 0.0016 µM): 1.13
viability ([13]; 0.008 µM): 1.03
viability ([13]; 0.04 µM): 0.856
viability ([13]; 0.2 µM): 0.693
viability ([13]; 1 µM): 0.588
viability ([14]; 0.0016 µM): 1.16
viability ([14]; 0.008 µM): 1.11
viability ([14]; 0.04 µM): 0.931
viability ([14]; 0.2 µM): 0.323
viability ([14]; 1 µM): 0.0341
